According to patent US8853221B2, “Compounds of estrogen-related receptor modulators and the uses thereof” (Guangzhou Institute of Biomedicine & Health, Chinese …, priority 2008, dated 2014):

Tests used:
[1] = target: T1, GAL-hERRα (Homo sapiens, UniProt P11474); experiment: GAL4-ERRα ligand binding domain luciferase reporter activation assay in 293 FT cells co-transfected with CMV-PGC-1α; assay type: cell-based; conditions: in the presence of CMV-PGC-1α, approximately 24 hours, increasing concentrations (FIG. 1)
T1 construct: expressed in transfected cells; host or cells: 293 FT cells
T1 sequence (P11474 193-421 limits assumed): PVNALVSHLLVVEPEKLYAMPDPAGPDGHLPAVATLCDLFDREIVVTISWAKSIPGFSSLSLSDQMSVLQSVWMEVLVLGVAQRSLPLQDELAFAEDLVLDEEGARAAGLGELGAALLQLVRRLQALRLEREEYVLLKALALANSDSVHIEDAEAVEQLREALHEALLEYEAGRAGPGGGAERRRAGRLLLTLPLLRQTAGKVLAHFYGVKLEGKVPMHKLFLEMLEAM
Text: To test the effect of the compounds on ERR and other nuclear hormone receptors, 293 FT cells were transiently transfected with expression vectors for the receptors along with appropriate reporter constructs according to methods known in the art. Suitable reporter gene constructs are well known to skilled workers in the fields of biochemistry and molecular biology. Other vectors known in the art can be used in the methods of the present invention. GAL4 fusions containing receptor ligand binding domain fragments were constructed by fusing human ERRα, human ERRβ and murine ERRγ ligand binding domain sequences to the C-terminal end of the yeast GAL4 DNA binding domain (amino acids 1-147 accession X85976) to form the expression vectors GAL-hERRα, GAL-L-hERRβ and Gal-mERRγ, respectively. pGAL is a control containing the yeast GAL4 DNA binding domain without receptor sequences. CMV-PGC-1α contains and expressed the PGC-1α coding sequences derived from PGC-1α (accession NM--008904). 293 FT cells for the activation assays were grown in Dulbecco's modified Eagle's medium supplemented with 10% resin charcoal-stripped fetal bovine serum at 37° C. in 5% CO2. One day prior to transfection, cells were plated to 50-80% confluence using phenol red free DMEM-FBS. The cells were transiently transfected by lipofection but other methods of transfection of DNA into cells can be utilized without deviating from the spirit of the invention. Luciferase reporter construct UASgx4-TK-Luc and cytomegalovirus-driven expression vector p-GAL, GAL-hERRα, GAL-L-hERRβ or Gal-mERRγ were added with CMV-PGC-1α. The cells were treated for approximately 24 hours with phenol red free DMEM-FBS containing 0.01% DMSO (control) or 0.01% DMSO with increasing concentrations of DK compounds. […] (FIG. 1).

[2] = system: PGC1α-promoter reporter gene driven by ERRα; experiment: PGC1α-promoter luciferase reporter gene assay driven by ERRα in HeLa cells; assay type: cell-based, human; conditions: 10 uM, approximately 24 hours (FIG. 2)
Text: (§1) HeLa were transiently transfected with the pGL3-promoter (Promega) derivative pGL3-PGC1α-promoter or PDK4-Promega and expression vector for ERRα. The Renilla-Luciferase pRL-CMV Vector (Promega) was included as a control for transfection efficiency. The full length human ERRα was cloned into the expression vector pCMV. The pGL3-PGC1α-promoter or PDK4-promoter was generated by cloning an insert derived from a PCR reaction using human genomic DNA as template and primers based on the 2.6 kbp upstream sequence of the PGC1α transcriptional start site.
(§2) HeLa cells for the activation assays were grown in Dulbecco's modified Eagle's medium supplemented with 10% fetal bovine serum at 37° C. in 5% CO2. One day prior to transfection, cells were plated to 50-80% confluence using DMEM-FBS. The cells were transiently transfected by lipofection but other methods of transfection of DNA into cells can be utilized without deviating from the spirit of the invention. Luciferase reporter construct pGL3-PGC1α-promoter or PDK4-promoter and cytomegalovirus-driven expression vector pCMV or pCMV-hERRα were added. The cells were treated for approximately 24 hours with DMEM-FBS containing 0.01% DMSO (control) or 0.01% DMSO with 10 uM DK45 compound.

[3] = system: PDK4-promoter reporter gene driven by ERRα; experiment: PDK4-promoter luciferase reporter gene assay driven by ERRα in HeLa cells; assay type: cell-based, human; conditions: 10 uM, approximately 24 hours (FIG. 2)
Text: as §1, §2

[4] = system: high-fat-diet mice; experiment: Oral glucose tolerance test in high-fat-diet mice; assay type: in vivo, C57BL/J6 mice; conditions: 5 mg/kg/day by gavage for two weeks, fasted 5 h (FIG. 3)
Procedure: (§3) Seven weeks old male C57BL/J6 mice were either fed chow diet or a high-fat-diet with 60% calories from lard for 10 weeks. Compounds were administered to animals by gavage for two weeks at different doses. Four groups of animals (n=5) were administered with either vehicle, 5 mg/kg/day rosiglitazone, or 5 mg/kg/day DK45. Animals were fasted for 5 h, and then orally fed glucose. Blood samples were withdrawn at time 0, 15, 30, 60 and 120 min. Blood glucose level was measured by monitor (Accu-chek Advantage, Roche). The changes in blood glucose level were plotted against time and the areas under the curve were calculated for the different groups.

[5] = system: high-fat-diet mice; experiment: Non-fasting blood glucose level in high-fat-diet mice; assay type: in vivo, C57BL/J6 mice; conditions: 5 mg/kg/day by gavage for two weeks, non-fasting (FIG. 4)
[6] = system: high-fat-diet mice; experiment: Insulin resistance (insulin tolerance) test in high-fat-diet mice; assay type: in vivo, C57BL/J6 mice; conditions: 5 mg/kg/day by gavage, fasted 5 h, insulin 0.75 IU/kg (FIG. 5)
Procedure: as §3
In addition, insullin resistance test was administered. Animals were fasted for 5 h, and then injected insulin (0.75 IU/kg). Blood samples were withdrawn at time 0, 15, 30, 60 and 120 min. Blood glucose level was measured by monitor (Accu-chek Advantage, Roche). The changes in blood glucose level were plotted against time and the areas under the curve were calculated for the different groups.
(§4) The blood insulin levels of fasting and non-fasting treatments also indicate that DK45 at 5 mg/kg/day reduced the blood insulin levels of non-fasting treatments (FIG. 6).

[7] = system: high-fat-diet mice; experiment: Blood insulin level in high-fat-diet mice; assay type: in vivo, C57BL/J6 mice; conditions: 5 mg/kg/day by gavage, non-fasting (FIG. 6)
Procedure: as §3, §4

[8] = system: high-fat-diet mice; experiment: Serum free fatty acid, cholesterol and triglyceride levels in high-fat-diet mice; assay type: in vivo, C57BL/J6 mice; conditions: 5 mg/kg/day
Procedure: as §3
Moreover, DK45 at 5 mg/kg/day reduced serum free fatty acid (FIG. 7), cholesterol (FIG. 8), and triglyceride levels (FIG. 9) of non-fasting treatments.

activity of GAL-hERRα on reporter construct UASgx4-TK-Luc [1] | SMILES | PGC1α-promoter reporter gene driven by ERRα [2] | PDK4-promoter reporter gene driven by ERRα [3] | area under the curve of the oral glucose tolerance test [4] | blood glucose levels, non-fasting [5] | area under the curve of the insulin resistance test [6] | blood insulin levels of non-fasting treatments [7] | serum free fatty acid ([8]; non-fasting (FIG. 7)) | serum cholesterol ([8]; non-fasting (FIG. 8)) | serum triglyceride levels ([8]; non-fasting (FIG. 9))
dose-dependently enhances | COc1ccn2c(=O)cc(-c3ccccc3)nc2c1 [DK36, 8-methoxy-2-phenyl-4H-pyrido[1,2-a]pyrimidin-4-one] | – | – | – | – | – | – | – | – | –
dose-dependently enhances | CC(C)Oc1ccn2c(=O)cc(-c3ccccc3)nc2c1 [DK41, 8-isopropoxy-2-phenyl-4H-pyrido[1,2-a]pyrimidin-4-one] | – | – | – | – | – | – | – | – | –
dose-dependently enhances | CCc1ccn2c(=O)cc(-c3ccccc3)nc2c1 [DK45, 8-ethyl-2-phenyl-4H-pyrido[1,2-a]pyrimidin-4-one] | enhancement | enhancement | reduced | reduced | reduced | reduced | reduced | reduced | reduced
